Experimental data reported in patent US11685714B2, “Prodrugs of cytotoxic active agents having enzymatically cleavable groups” (BAYER PHARMA AKTIENGESELLSCHAFT, priority 2016, dated 2023).

What was measured:
[1] = Assay for determination of stability in rat plasma; type: in vitro ADME; conditions: 1 μg/ml, 37° C., 24 h
Method: To examine the stability of compounds A and B, 1 ml of rat plasma in a 1.5 ml Eppendorf tube in each case was equilibrated to 37° C. on an Eppendorf shaker. A stock solution (9 acetonitrile/1 DMSO) having a concentration of 100 μg/ml for compound A and compound B was prepared. 10 μl in each case of the stock solution were pipetted into 1 ml of equilibrated rat plasma, so as to give a concentration of 1 μg/ml.
The samples were kept at 450 rpm and 37° C. for 24 h. At each of the sampling times of 0, 0.25 h, 0.5 h, 1 h, 2 h, 4 h, 6 h and 24 h, 50 μl were taken and pipetted into 150 μl of methanol. Internal standard was included in the initial charge of methanol at a concentration of 0.05 μg/ml. After brief vortexing, 300 μl of 10 mM ammonium acetate buffer (pH 6.8) were added and centrifuged at 1881 g for 10 min. The samples were then analysed by means of RP-HPLC analysis and by LC-MS analysis.

[2] = target: T1, recombinant human legumain (Homo sapiens, UniProt Q99538); assay: Legumain assay (cleavage of legumain-cleavable prodrugs); type: biochemical; conditions: within 24 h; rh legumain, pH 5.0
T1 construct: purchased R&D Systems 2199-CY
T1 sequence (Q99538 26-323 limits assumed): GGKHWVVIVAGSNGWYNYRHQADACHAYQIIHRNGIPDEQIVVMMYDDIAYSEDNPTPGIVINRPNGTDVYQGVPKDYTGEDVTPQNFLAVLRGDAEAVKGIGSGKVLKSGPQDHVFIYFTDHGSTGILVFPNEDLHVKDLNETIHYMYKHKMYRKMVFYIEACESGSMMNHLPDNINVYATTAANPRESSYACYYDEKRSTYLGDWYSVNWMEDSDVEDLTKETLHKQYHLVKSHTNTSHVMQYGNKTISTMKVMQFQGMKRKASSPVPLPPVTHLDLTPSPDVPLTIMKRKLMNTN
Method: The legumain assay was conducted with recombinant human enzyme. The rh legumain enzyme solution (catalogue #2199-CY, R&D Systems) was diluted to the desired concentration in 50 mM Na acetate buffer/100 mM NaCl, pH4.0 and preincubated at 37° C. for 2 h. rh legumain was then adjusted to a final concentration of 1 ng/μl in 50 mM MES buffer, 250 mM NaCl, pH 5.0. For every legumain-cleavable prodrug to be examined, a mixture was made up in a micro reaction vessel (0.5 ml, from Eppendorf). For this purpose, the substrate solution was adjusted to the desired concentration (double concentration) with 50 mM MES buffer, 250 mM NaCl, pH 5.0. For the kinetic measurement of the enzymatic reaction, 250 μl of the legumain solution were first initially charged and the enzyme reaction was started by adding 250 μl of the substrate solution (final concentration: single concentration). At different times, 50 μl samples were taken. This sample was admixed immediately with 100 μl of ice-cold methanol in order to stop the enzymatic reaction and then frozen at −20° C. The times selected for sampling were after 0.5 h, 1 h, 3 h and 24 h. The samples were then analysed by means of RP-HPLC analysis and by LC-MS analysis. The determination of the toxophor released enabled the determination of the half-life t½ of the enzymatic reaction (FIG. 1). […]

In the case of `CNC(=O)[C@H](CCN(C(=O)CO)[C@@H](c1cc(-c2cc(F)ccc2F)cn1Cc1ccccc1)C(C)(C)C)NC(=O)[C@H](CC(N)=O)NC(=O)[C@@H](C)NC(=O)[C@H](C)NC(=O)Cc1ccncc1` [Example R3r-LDL, N-(Pyridin-4-ylacetyl)-L-alanyl-D-alanyl-N^1-[(2S)-4-[{(1R)-1-[1-benzyl-4-(2,5-difluorophenyl)-1H-pyrrol-2-yl]-2,2-dimethylpropyl}(glycoloyl)amino]-1-(methylamino)-1-oxobutan-2-yl]-L-aspartamide], the “stability in rat plasma” value [1] is reported as “stable over 24 h” and the “extent of cleavage to the target compound by legumain” value [2] is reported as “about 20%”.
